{
  "source": "patent US12201694B2",
  "about": "“Hydrogel compositions” (Hyderabad Eye Institute, priority 2018, dated 2025)",
  "key": {"C. albicans ATCC90028": {"test_system": "C. albicans ATCC90028", "assay": "Minimal inhibitory concentration (MIC), no visible growth after 16 h", "assay_type": "cell-based, Candida albicans", "method": "(§1) C. albicans cells, laboratory strain SC5314 or ATCC90028, were cultured on solid BHI (Oxoid) medium at 37° C. for 24 hours and stored at 4° C. for up to one month. Prior to experiments, a colony of C. albicans was sub-cultured into liquid BHI medium overnight at 37° C. Overnight cultures of C.albicans were adjusted to an optical density at 600 nm of 0.1 and incubated with Amphotericin polymers, which were serially diluted 1:2 from 2500-2.44 μg/ml, for 16 hours in a 96 well plate. The concentration of polymer at which there was no visible growth was determined to be the MIC. C.albicans (Robin) ATCC200955, C.tropicalis ATCC200956, A.flavus ATCC16883 and F. keratoplasticum ATCC36031 were similarly cultured on solid Sabrauds (Oxoid) medium at 37° C. for 24 hours and stored at 4° C. for up to one month. Prior to experiments, colonies were sub-cultured into liquid Sabrauds medium overnight at 37° C. All liquid cultures were static apart from A.flavus which was incubated shaking at 100 rpm."}, "C. albicans SC5314": {"test_system": "C. albicans SC5314", "assay": "Minimal inhibitory concentration (MIC), no visible growth after 16 h", "assay_type": "cell-based, Candida albicans", "method": "as §1"}, "C. albicans ATCC200955": {"test_system": "C. albicans ATCC200955", "assay": "Minimal inhibitory concentration (MIC)", "assay_type": "cell-based, Candida albicans", "conditions": "C. albicans ATCC200955 (Amp-B non-sensitive)", "method": "as §1"}, "C. tropicalis ATCC200956": {"test_system": "C. tropicalis ATCC200956", "assay": "Minimal inhibitory concentration (MIC)", "assay_type": "cell-based, Candida tropicalis", "conditions": "C. tropicalis ATCC200956 (Amp-B non-sensitive)", "method": "as §1, with “Overnight cultures of C.albicans were adjusted to an optical density at 600 nm of 0.1 and incubated with Amphotericin polymers, which were serially diluted 1:2 from 2500-2.44 μg/ml, for 16 hours in a 96 well plate.” left out"}, "A. flavus ATCC16883": {"test_system": "A. flavus ATCC16883", "assay": "Minimal inhibitory concentration (MIC)", "assay_type": "cell-based, Aspergillus flavus", "conditions": "A. flavus ATCC 16883", "method": "as §1"}, "[1]": {"test_system": "F. keratoplasticum ATCC36031", "assay": "Minimal inhibitory concentration (MIC)", "assay_type": "cell-based, Fusarium keratoplasticum", "conditions": "F. keratoplasticum ATCC 36031", "method": "as §1"}, "[2]": {"conditions": "physiological pH; well known; cited from earlier work"}, "[3]": {"conditions": "literature reference [19]; cited from earlier work"}, "[4]": {"conditions": "from weight MIC and molar density"}},
  "data": [
    {"smiles": "C[C@@H]1[C@H](O)[C@@H](C)/C=C/C=C/C=C/C=C/C=C/C=C/C=C/[C@H](O[C@@H]2O[C@H](C)[C@@H](O)[C@H](N)[C@@H]2O)C[C@@H]2O[C@](O)(C[C@@H](O)C[C@@H](O)[C@H](O)CC[C@@H](O)C[C@@H](O)CC(=O)O[C@H]1C)C[C@H](O)[C@H]2C(=O)O", "note": "[Amphotericin B]", "values": [
      {"measurement": "Weight based MIC", "setting": "C. albicans ATCC90028; C. albicans ATCC90028", "result": 0.5, "unit": "µg·mL"},
      {"measurement": "MIC against ATCC90028", "setting": "C. albicans ATCC90028; C. albicans ATCC90028, 16 hours", "result": 4, "unit": "µg/mL"},
      {"measurement": "Molar MIC", "setting": "C. albicans ATCC90028; C. albicans ATCC90028, from weight MIC and molar density", "result": 4800, "unit": "µM"},
      {"measurement": "Weight based MIC", "setting": "C. albicans SC5314; C. albicans SC5314", "result": 0.4, "unit": "µg·mL"},
      {"measurement": "MIC against SC5314", "setting": "C. albicans SC5314; C. albicans SC5314, 16 hours", "result": 0.4, "unit": "µg/mL"},
      {"measurement": "Molar MIC", "setting": "C. albicans SC5314; C. albicans SC5314, from weight MIC and molar density", "result": 500, "unit": "µM"},
      {"measurement": "Weight based MIC", "setting": "C. albicans ATCC200955", "result": ">2500", "unit": "µg·mL"},
      {"measurement": "Weight based MIC", "setting": "C. tropicalis ATCC200956", "result": ">2500", "unit": "µg·mL"},
      {"measurement": "Weight based MIC", "setting": "A. flavus ATCC16883", "result": 1.5, "unit": "µg·mL"},
      {"measurement": "Molar MIC", "setting": "A. flavus ATCC16883; [4]", "result": 1800, "unit": "µM"},
      {"measurement": "Weight based MIC", "setting": "[1]", "result": 0.2, "unit": "µg·mL"},
      {"measurement": "Molar MIC", "setting": "[1]; [4]", "result": 250, "unit": "µM"},
      {"measurement": "solubility in water and saline solution", "setting": "[2]", "result": "insoluble"},
      {"measurement": "MIC for amphotericin B", "setting": "[3]", "result": "4.68 to 150", "unit": "µM"}
    ]}
  ]
}
